Results reported in US20180298405A1, “METHODS AND COMPOSITIONS TO INCREASE HUMAN SOMATIC CELL NUCLEAR TRANSFER (SCNT) EFFICIENCY BY REMOVING HISTONE H3-LYSINE TRIMETHYLATION, AND DERIVATION OF HUMAN NT-ESC” (CHILDREN'S MEDICAL CENTER CORPORATION, priority 2015, published 2018).

Tested on: reprogramming resistant regions (RRRs) / ZGA genes
Test: RNA-seq of late 8-cell human SCNT embryos with or without KDM4A mRNA injection (ZGA of RRRs, KDM4A-responsive genes)
Assay type: cell-based
Description: A sliding window (size 20 kb, step size 10 kb) was used to assess the genome-wide expression level of 4-cell and 8-cell human embryos. For each window, the expression level was quantified with normalized RPM (reads per millions of uniquely mapped reads). […] These activated regions were classed into three groups based on their expression differences in human SCNT and IVF 8-cell embryos.
The SCNT embryos used for ZGA analysis were generated using oocytes donated by a single healthy person (#64) and dermal fibroblast cells from an AMD patient (DFB-8). SCNT and IVF embryos were cultured up to late 8-cell stage, when the compaction of blastomeres is initiated, then they were treated briefly with acid Tyrode solution to remove zona pellucida. To prepare for the 8-cell SCNT embryo, oocytes from a single oocyte donor, and skin fibroblast cells from a single somatic nuclear donor were used. All the procedures are the same as described in the “Human SCNT procedure and KMD4A mRNA injection” section. Only embryos that reached the late 8-cell stage synchronically 74 hours post activation were collected and used for this experiment.
For preparation of the control IVF embryos, several donated early 8-cell stage IVF embryos were thawed and cultured for 5-7 hours to allow them to reach late 8-cell stage before being processed. After removal of the zona pellucida, the denuded embryos were washed 3 times in PBS, loaded into RNAse and DNAse free PCR tubes, spin downed, and snap frozen in liquid nitrogen. Then, they were kept at −80° C. until use. As controls, dermal fibroblast cells of somatic nuclear donors were also prepared. Those fibroblast cells were cultured in a 25 cm^2 flask in DMEM 10% FBS, and approximately 10,000 cells/donor were collected, snap frozen, and stored at −80° C. until use.
Five 8-cell embryos for each group were directly lysed and used for cDNA synthesis using SMART-Seq v4 Ultra Low Input RNA Kit (Clontech). For MEF donor, 10 ng total RNA was used for cDNA synthesis using SMART-Seq v4 Ultra Low Input RNA Kit. After amplification, the cDNA samples were fragmented using Covaris sonicator M220 to an average size of 150 bp (Covaris). Sequencing libraries were made with the fragmented DNA using NEBNext Ultra DNA Library Prep Kit for Illumina according to manufacturer's instruction (New England Biolabs) with different barcodes. For each RNA-seq analysis of hESCs, 1 μg total RNA was used for mRNA purification. Barcoded RNA-seq libraries were generated using NEBNext Ultra Directional RNA Library Prep Kit for Illumina (New England Biolabs). Single end 50 bp sequencing was performed on a HiSeq 2500 sequencer (Illumina). Sequencing reads were mapped to the human genome (hg19) with Tophat2. All programs were performed with default settings (unless otherwise specified). At least 22 million uniquely mapped reads were obtained for each sequencing library, and subsequently assembled into transcripts guided by the reference annotation (Refseq gene models) with Cufflinks v2.0.2. Expression level of each gene was quantified with normalized FPKM (fragments per kilobase of exon per million mapped fragments). Statistical analyses were performed with R (available at: “www.r-project.org/”). Independent 2 group Wilcoxon rank sum tests were used to compare distributions using the wilcox.test function in R. Pearson's r coefficient was calculated using the cor function with default parameters. The hierarchical clustering analysis of the global gene expression pattern in different samples was carried out using heatmap.2 function (gplots package) in R.

[1] = 8-cell SCNT embryos, FC>2 versus non-injected

## KDM4A mRNA: in vitro transcribed mRNA of full length human KDM4A/JHDM3A cDNA, an H3K9me3 demethylase (SEQ ID NO: 1)
[1]
  fraction of the 318 RRRs markedly up-regulated: 50%
  number of the 318 RRRs markedly up-regulated: 158
8-cell SCNT embryos, FPKM>5, FC>2
  number of genes significantly up-regulated (KDM4A-responsive genes): 206
8-cell embryos
  12-Sep Fold Change (log2) [KDM4A SCNT/Control SCNT]: 2 log2
  AASDH Fold Change (log2) [KDM4A SCNT/Control SCNT]: 1.19 log2
  ACBD5 Fold Change (log2) [KDM4A SCNT/Control SCNT]: 1.32 log2
  ALG5 Fold Change (log2) [KDM4A SCNT/Control SCNT]: 1.89 log2
  ALPPL2 Fold Change (log2) [KDM4A SCNT/Control SCNT]: 1.25 log2
  APOC1P1 Fold Change (log2) [KDM4A SCNT/Control SCNT]: 1.03 log2
  ATP5J2-PTCD1 Fold Change (log2) [KDM4A SCNT/Control SCNT]: 5.53 log2
  BEX2 Fold Change (log2) [KDM4A SCNT/Control SCNT]: 1.05 log2
  BLVRB Fold Change (log2) [KDM4A SCNT/Control SCNT]: 1.56 log2
  BTAF1 Fold Change (log2) [KDM4A SCNT/Control SCNT]: 1.93 log2
  BTK Fold Change (log2) [KDM4A SCNT/Control SCNT]: 1.09 log2
  BUD31 Fold Change (log2) [KDM4A SCNT/Control SCNT]: 1.19 log2
  C1D Fold Change (log2) [KDM4A SCNT/Control SCNT]: 1.67 log2
  C2orf74 Fold Change (log2) [KDM4A SCNT/Control SCNT]: 1.28 log2
  C11orf67 Fold Change (log2) [KDM4A SCNT/Control SCNT]: 1.34 log2
  C12orf60 Fold Change (log2) [KDM4A SCNT/Control SCNT]: 1.78 log2
  C16orf91 Fold Change (log2) [KDM4A SCNT/Control SCNT]: 1.24 log2
  C17orf89 Fold Change (log2) [KDM4A SCNT/Control SCNT]: 1.09 log2
  C18orf56 Fold Change (log2) [KDM4A SCNT/Control SCNT]: 1.43 log2
  C20orf7 Fold Change (log2) [KDM4A SCNT/Control SCNT]: 2.14 log2
  CAB39L Fold Change (log2) [KDM4A SCNT/Control SCNT]: 1.23 log2
  CCAR1 Fold Change (log2) [KDM4A SCNT/Control SCNT]: 1.15 log2
  CCDC86 Fold Change (log2) [KDM4A SCNT/Control SCNT]: 1.1 log2
  CCL2 Fold Change (log2) [KDM4A SCNT/Control SCNT]: 3.05 log2
  CCL15 Fold Change (log2) [KDM4A SCNT/Control SCNT]: 2.82 log2
  CELA3B Fold Change (log2) [KDM4A SCNT/Control SCNT]: 1.63 log2
  CENPC1 Fold Change (log2) [KDM4A SCNT/Control SCNT]: 1.1 log2
  CLC Fold Change (log2) [KDM4A SCNT/Control SCNT]: 3.69 log2
  CLDN6 Fold Change (log2) [KDM4A SCNT/Control SCNT]: 1.65 log2
  CLK4 Fold Change (log2) [KDM4A SCNT/Control SCNT]: 1.21 log2
  CNKSR3 Fold Change (log2) [KDM4A SCNT/Control SCNT]: 1.48 log2
  CNPY4 Fold Change (log2) [KDM4A SCNT/Control SCNT]: 1.77 log2
  COX7B2 Fold Change (log2) [KDM4A SCNT/Control SCNT]: 3.15 log2
  COX17 Fold Change (log2) [KDM4A SCNT/Control SCNT]: 1.44 log2
  CSAG1 Fold Change (log2) [KDM4A SCNT/Control SCNT]: 3.27 log2
  CSTF3 Fold Change (log2) [KDM4A SCNT/Control SCNT]: 1.29 log2
  CUL2 Fold Change (log2) [KDM4A SCNT/Control SCNT]: 1.29 log2
  CXorf61 Fold Change (log2) [KDM4A SCNT/Control SCNT]: 2.18 log2
  DDX26B Fold Change (log2) [KDM4A SCNT/Control SCNT]: 1.14 log2
  DEFB122 Fold Change (log2) [KDM4A SCNT/Control SCNT]: 1.06 log2
  DLEU7 Fold Change (log2) [KDM4A SCNT/Control SCNT]: 4.91 log2
  DNASE2 Fold Change (log2) [KDM4A SCNT/Control SCNT]: 1.11 log2
  DRAM1 Fold Change (log2) [KDM4A SCNT/Control SCNT]: 1.6 log2
  ECE2 Fold Change (log2) [KDM4A SCNT/Control SCNT]: 1.09 log2
  EIF1AD Fold Change (log2) [KDM4A SCNT/Control SCNT]: 1.18 log2
  ELL2 Fold Change (log2) [KDM4A SCNT/Control SCNT]: 1.01 log2
  FAM9A Fold Change (log2) [KDM4A SCNT/Control SCNT]: 3.83 log2
  FAM19A3 Fold Change (log2) [KDM4A SCNT/Control SCNT]: 2.58 log2
